Experimental data: patent publication US20080015202A1, “Thiazole Derivatives Having Vap-1 Inhibitory Activity” (Astellas Pharma Inc., priority 2004, published 2008)
Counter-ions that a name gives are not always drawn.

How the values were obtained:
[1] = target: T1, VAP-1 enzyme (SSAO) in human plasma (Homo sapiens, UniProt Q16853); test: Inhibitory effect on VAP-1 enzyme (SSAO) activity in human plasma, radiochemical-enzyme assay with 14C-benzylamine; format: biochemical; settings: human plasma enzyme suspension; 30 min pre-incubation at room temperature; 14C-benzylamine 2×10^−5 mol/l, 37° C., 1 hour
T1 construct: The enzyme suspension prepared from blood plasma was pre-incubated with one of the present compounds; from tissue; host or cells: human blood plasma
T1 sequence (Q16853 27-763 limits assumed): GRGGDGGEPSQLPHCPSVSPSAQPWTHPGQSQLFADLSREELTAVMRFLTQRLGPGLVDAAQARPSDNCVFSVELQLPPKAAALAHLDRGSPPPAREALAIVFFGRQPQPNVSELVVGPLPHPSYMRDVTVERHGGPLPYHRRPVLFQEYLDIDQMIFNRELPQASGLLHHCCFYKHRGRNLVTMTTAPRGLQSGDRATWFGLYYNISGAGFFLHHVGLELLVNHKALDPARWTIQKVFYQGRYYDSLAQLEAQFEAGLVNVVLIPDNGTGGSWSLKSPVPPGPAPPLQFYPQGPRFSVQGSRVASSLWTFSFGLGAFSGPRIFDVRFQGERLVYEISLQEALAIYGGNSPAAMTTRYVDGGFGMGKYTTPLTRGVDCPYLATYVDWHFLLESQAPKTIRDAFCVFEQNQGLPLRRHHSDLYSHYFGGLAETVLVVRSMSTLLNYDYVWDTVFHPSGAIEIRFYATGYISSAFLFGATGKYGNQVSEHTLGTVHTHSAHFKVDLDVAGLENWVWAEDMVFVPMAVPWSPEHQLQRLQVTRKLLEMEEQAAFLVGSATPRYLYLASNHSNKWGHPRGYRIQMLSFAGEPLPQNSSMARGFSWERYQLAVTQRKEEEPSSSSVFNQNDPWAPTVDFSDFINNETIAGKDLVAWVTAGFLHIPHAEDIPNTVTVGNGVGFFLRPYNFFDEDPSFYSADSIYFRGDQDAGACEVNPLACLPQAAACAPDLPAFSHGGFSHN
Description: Inhibitory Effect of the Present Compounds on VAP-1 Enzyme (SSAO) Activity in Human Plasma.
VAP-1 enzyme (SSAO) activity in human plasma was determined by a radiochemical-enzyme assay using ^14C-benzylamine as an artificial substrate. The enzyme suspension prepared from blood plasma was pre-incubated with one of the present compounds or control compound (Reference Example) in 96-well microplate at room temperature for 30 minutes. The enzyme suspension was then incubated with ^14C-benzylamine (2×10^−5 mol/l final concentration) in a final volume of 50 μl at 37° C. for 1 hour. The enzyme reaction was terminated by adding 2 mol/l (50 μl) citric acid. The oxidized products were directly extracted into a 200 μl toluene scintillator, and its radioactivity was measured by a scintillation spectrometer. Inhibition activity was expressed as IC50 (μmol/l) value.

SMILES	melting point [°C]	IC50 [1] [nM]
CC(=O)Nc1nc(CCc2ccc(CCNC(=N)N)s2)cs1 [Production Example 1, N-(4-{2-[5-(2-{[amino(imino)methyl]amino}ethyl)-2-thienyl]ethyl}thiazol-2-yl)acetamide]	121.5 to 123	
CC(=O)Nc1nc(CCc2ccc(CNC(=N)N)s2)cs1 [Production Example 3, N-(4-{2-[5-({[amino(imino)methyl]amino}methyl)-2-thienyl]ethyl}thiazol-2-yl)acetamide hydrochloride]		12
CC(=O)Nc1nc(CCc2ccc(CC(=O)NC(=N)N)s2)cs1 [Production Example 4, 2-{5-[2-(2-acetylaminothiazol-4-yl)ethyl]-2-thienyl}-N-[amino(imino)methyl]acetamide]	188.5 to 190	2.4
CC(=O)Nc1nc(CCc2ccc(CC(=O)O)s2)cs1 [Production Example 5, 2-{5-[2-(2-acetylaminothiazol-4-yl)ethyl]-2-thienyl}acetic acid]	172 to 173.5	
CC(=O)Nc1nc(CCc2ccc(CN3CCN(C(=O)OC(C)(C)C)CC3)cc2)cs1 [Production Example 11, tert-butyl 4-{4-[2-(2-acetylaminothiazol-4-yl)ethyl]benzyl}-1-piperazinecarboxylate]	140 to 141	
CC(=O)Nc1nc(CCc2ccc(CN3CCNCC3)cc2)cs1 [Production Example 12, N-(4-{2-[4-(1-piperazinylmethyl)phenyl]ethyl}thiazol-2-yl)acetamide]	164 to 165.5	
CC(=O)Nc1nc(CCc2ccc(Cc3c[nH]c(N)n3)cc2)cs1 [Production Example 17, N-[4-(2-{4-[(2-amino-1H-imidazol-4-yl)methyl]phenyl}ethyl)thiazol-2-yl]acetamide]		5.3
